According to patent US20250213555A1, “SUBSTITUTED TETRAHYDROFURAN ANALOGS AS MODULATORS OF SODIUM CHANNELS” (VERTEX PHARMACEUTICALS INCORPORATED, priority 2021, published 2025):

Target: human Nav 1.8 (Homo sapiens, UniProt Q9Y5Y9)
Test: E-VIPR assay detecting and measuring Nav inhibition properties
Format: cell-based
Details: HEK cells expressing a truncated form of human Nav 1.8; compound numbers without "*" (not marked as run in the presence of human serum); read-out: measured IC50 value in the E-VIPR Assay
Outline: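 Nav inhibition was read by E-VIPR: cells were electrically stimulated while coumarin/oxonol FRET emissions were recorded. Cells were HEK expressing a truncated human Nav 1.8 and co-transduced with KIR2.1, and were assayed in 25% final human serum.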

Sequence of human Nav 1.8 (Q9Y5Y9 126-399 limits assumed): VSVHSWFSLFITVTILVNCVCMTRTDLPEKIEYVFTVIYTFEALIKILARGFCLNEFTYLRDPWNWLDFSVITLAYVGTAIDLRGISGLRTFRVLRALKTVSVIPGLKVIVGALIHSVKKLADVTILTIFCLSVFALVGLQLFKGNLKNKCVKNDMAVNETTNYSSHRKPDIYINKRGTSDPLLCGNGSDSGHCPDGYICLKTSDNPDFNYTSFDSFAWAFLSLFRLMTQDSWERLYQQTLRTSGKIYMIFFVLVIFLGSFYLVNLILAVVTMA
Sequence of human Nav 1.8 (Q9Y5Y9 660-890 limits assumed): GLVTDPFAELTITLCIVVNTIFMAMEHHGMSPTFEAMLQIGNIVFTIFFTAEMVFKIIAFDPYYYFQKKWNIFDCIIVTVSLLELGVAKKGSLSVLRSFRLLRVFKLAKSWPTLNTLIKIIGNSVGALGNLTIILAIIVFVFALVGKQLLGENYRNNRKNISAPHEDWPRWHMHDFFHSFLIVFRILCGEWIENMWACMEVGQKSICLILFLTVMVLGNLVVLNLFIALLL
Sequence of human Nav 1.8 (Q9Y5Y9 1148-1722 limits assumed): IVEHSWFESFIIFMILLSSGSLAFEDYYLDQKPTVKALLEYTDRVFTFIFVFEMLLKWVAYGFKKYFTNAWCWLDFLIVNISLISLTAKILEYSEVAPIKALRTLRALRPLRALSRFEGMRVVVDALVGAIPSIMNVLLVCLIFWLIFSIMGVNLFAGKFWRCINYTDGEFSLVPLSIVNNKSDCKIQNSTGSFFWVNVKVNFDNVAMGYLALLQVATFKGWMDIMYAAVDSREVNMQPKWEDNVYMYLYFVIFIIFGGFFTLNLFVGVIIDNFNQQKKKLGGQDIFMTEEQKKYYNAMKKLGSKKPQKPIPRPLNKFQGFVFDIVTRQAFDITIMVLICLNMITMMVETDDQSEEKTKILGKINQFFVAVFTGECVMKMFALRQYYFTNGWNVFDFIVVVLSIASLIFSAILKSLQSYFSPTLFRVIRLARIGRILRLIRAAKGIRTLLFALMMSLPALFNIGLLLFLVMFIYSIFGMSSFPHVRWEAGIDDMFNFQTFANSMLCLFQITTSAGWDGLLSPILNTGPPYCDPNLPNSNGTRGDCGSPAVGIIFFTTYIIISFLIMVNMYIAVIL

| SMILES | IC50 [nM] |
| --- | --- |
| CC=C(CO)COc1c([C@H]2[C@H](C(=O)Nc3ccnc(C(N)=O)c3)O[C@@](C)(C(F)(F)F)[C@H]2C)ccc(F)c1F (single isomer, unassigned) [Compound 164, rel-4-((2R*,3S*,4S*,5R*)-3-(3,4-difluoro-2-((2-(hydroxymethyl)but-2-en-1-yl)oxy)phenyl)-4,5-dimethyl-5-(trifluoromethyl)tetrahydrofuran-2-carboxamido)picolinamide] | < 10 |
| C[C@H]1[C@@H](c2ccc(F)c(F)c2OCc2cncn2C)[C@H](C(=O)Nc2ccnc(C(N)=O)c2)O[C@@]1(C)C(F)(F)F [Compound 89, 4-((2R,3S,4S,5R)-3-(3,4-difluoro-2-((1-methyl-1H-imidazol-5-yl)methoxy)phenyl)-4,5-dimethyl-5-(trifluoromethyl)tetrahydrofuran-2-carboxamido)picolinamide] | < 10 |
| C[C@H]1[C@@H](c2ccc(F)c(F)c2OCC2(F)CNC2)[C@H](C(=O)Nc2ccnc(C(N)=O)c2)O[C@@]1(C)C(F)(F)F [Compound 106, 4-((2R,3S,4S,5R)-3-(3,4-difluoro-2-((3-fluoroazetidin-3-yl)methoxy)phenyl)-4,5-dimethyl-5-(trifluoromethyl)tetrahydrofuran-2-carboxamido)picolinamide] | 100 to 1000 |
| COC[C@H]1CN(C(=O)c2cc(NC(=O)[C@@H]3O[C@@](C)(C(F)(F)F)[C@@H](C)[C@H]3c3ccc(F)c(F)c3OC)ccn2)CCN1 [Compound 248, (2R,3S,4S,5R)-3-(3,4-difluoro-2-methoxyphenyl)-N-(2-((R)-3-(methoxymethyl)piperazine-1-carbonyl)pyridin-4-yl)-4,5-dimethyl-5-(trifluoromethyl)tetrahydrofuran-2-carboxamide] | < 10 |
| COc1c([C@H]2[C@H](C(=O)Nc3ccnc(C(=O)N(C)O)c3)O[C@@](C)(C(F)(F)F)[C@H]2C)ccc(F)c1F [Compound 217, 4-((2R,3S,4S,5R)-3-(3,4-difluoro-2-methoxyphenyl)-4,5-dimethyl-5-(trifluoromethyl)tetrahydrofuran-2-carboxamido)-N-hydroxy-N-methylpicolinamide] | < 10 |
| C[C@H]1[C@@H](c2ccc(F)c(F)c2OCCN2CC(C(F)F)C2)[C@H](C(=O)Nc2ccnc(C(N)=O)c2)O[C@@]1(C)C(F)(F)F [Compound 120, 4-((2R,3S,4S,5R)-3-(2-(2-(3-(difluoromethyl)azetidin-1-yl)ethoxy)-3,4-difluorophenyl)-4,5-dimethyl-5-(trifluoromethyl)tetrahydrofuran-2-carboxamido)picolinamide] | < 10 |
| C[C@H]1[C@@H](c2ccc(F)c(F)c2OC2CC(C#N)C2)[C@H](C(=O)Nc2ccnc(C(N)=O)c2)O[C@@]1(C)C(F)(F)F (stereo partly drawn) [Compound 80, 4-((2R,3S,4S,5R)-3-(2-(3-cyanocyclobutoxy)-3,4-difluorophenyl)-4,5-dimethyl-5-(trifluoromethyl)tetrahydrofuran-2-carboxamido)picolinamide] | < 10 |
| C[C@H]1[C@@H](c2ccc(F)c(F)c2OCc2cn(C)cn2)[C@H](C(=O)Nc2ccnc(C(N)=O)c2)O[C@@]1(C)C(F)(F)F [Compound 88, 4-((2R,3S,4S,5R)-3-(3,4-difluoro-2-((1-methyl-1H-imidazol-4-yl)methoxy)phenyl)-4,5-dimethyl-5-(trifluoromethyl)tetrahydrofuran-2-carboxamido)picolinamide] | < 10 |
| C[C@H]1[C@@H](c2ccc(F)c(F)c2OCCN2CCCOCC2)[C@H](C(=O)Nc2ccnc(C(N)=O)c2)O[C@@]1(C)C(F)(F)F [Compound 108, 4-((2R,3S,4S,5R)-3-(2-(2-(1,4-oxazepan-4-yl)ethoxy)-3,4-difluorophenyl)-4,5-dimethyl-5-(trifluoromethyl)tetrahydrofuran-2-carboxamido)picolinamide] | 10 to 100 |
| C[C@H]1[C@@H](c2ccc(F)c(F)c2OCCN2CC(C)(O)C2)[C@H](C(=O)Nc2ccnc(C(N)=O)c2)O[C@@]1(C)C(F)(F)F [Compound 122, 4-((2R,3S,4S,5R)-3-(3,4-difluoro-2-(2-(3-hydroxy-3-methylazetidin-1-yl)ethoxy)phenyl)-4,5-dimethyl-5-(trifluoromethyl)tetrahydrofuran-2-carboxamido)picolinamide] | 10 to 100 |
| CN[C@H]1CN(C(=O)c2cc(NC(=O)[C@@H]3O[C@@](C)(C(F)(F)F)[C@@H](C)[C@H]3c3ccc(F)c(F)c3OC)ccn2)C[C@H]1OC [Compound 297, (2R,3S,4S,5R)-3-(3,4-difluoro-2-methoxyphenyl)-N-(2-((3R,4S)-3-methoxy-4-(methylamino)pyrrolidine-1-carbonyl)pyridin-4-yl)-4,5-dimethyl-5-(trifluoromethyl)tetrahydrofuran-2-carboxamide] | < 10 |
| CO[C@H](CO)COc1c([C@H]2[C@H](C(=O)Nc3ccnc(C(N)=O)c3)O[C@@](C)(C(F)(F)F)[C@H]2C)ccc(F)c1F (single isomer, unassigned) [Compound 160, rel-4-((2R*,3S*,4S*,5R*)-3-(3,4-difluoro-2-(3-hydroxy-2-methoxypropoxy)phenyl)-4,5-dimethyl-5-(trifluoromethyl)tetrahydrofuran-2-carboxamido)picolinamide] | < 10 |
| COc1c([C@H]2[C@H](C(=O)Nc3ccnc(C(=O)N(C)[C@@H]4CCNC4)c3)O[C@@](C)(C(F)(F)F)[C@H]2C)ccc(F)c1F [Compound 229, 4-((2R,3S,4S,5R)-3-(3,4-difluoro-2-methoxyphenyl)-4,5-dimethyl-5-(trifluoromethyl)tetrahydrofuran-2-carboxamido)-N-methyl-N-((R)-pyrrolidin-3-yl)picolinamide] | < 10 |
| C[C@H]1[C@@H](c2ccc(F)c(F)c2OCCN2CC3(CCOC3)C2)[C@H](C(=O)Nc2ccnc(C(N)=O)c2)O[C@@]1(C)C(F)(F)F [Compound 126, 4-((2R,3S,4S,5R)-3-(2-(2-(6-oxa-2-azaspiro[3.4]octan-2-yl)ethoxy)-3,4-difluorophenyl)-4,5-dimethyl-5-(trifluoromethyl)tetrahydrofuran-2-carboxamido)picolinamide] | 10 to 100 |
| COc1c([C@H]2[C@H](C(=O)Nc3ccnc(C(N)=O)c3)O[C@@](C)(C(F)(F)F)[C@H]2C)cc(OCc2ccccc2)c(F)c1F [Compound 177, 4-((2R,3S,4S,5R)-3-(5-(benzyloxy)-3,4-difluoro-2-methoxyphenyl)-4,5-dimethyl-5-(trifluoromethyl)tetrahydrofuran-2-carboxamido) picolinamide] | < 10 |
| C[C@H]1[C@@H](c2ccc(F)c(F)c2OCCN=S(C)(C)=O)[C@H](C(=O)Nc2ccnc(C(N)=O)c2)O[C@@]1(C)C(F)(F)F [Compound 130, 4-((2R,3S,4S,5R)-3-(2-(2-((dimethyl(oxo)-26-sulfaneylidene)amino)ethoxy)-3,4-difluorophenyl)-4,5-dimethyl-5-(trifluoromethyl)tetrahydrofuran-2-carboxamido)picolinamide] | < 10 |
| C[C@H]1[C@@H](c2ccc(F)c(F)c2OC2CC(C)(O)C2)[C@H](C(=O)Nc2ccnc(C(N)=O)c2)O[C@@]1(C)C(F)(F)F (stereo partly drawn) [Compound 174, 4-((2R,3S,4S,5R)-3-(3,4-difluoro-2-(3-hydroxy-3-methylcyclobutoxy)phenyl)-4,5-dimethyl-5-(trifluoromethyl)tetrahydrofuran-2-carboxamido)picolinamide] | < 10 |
| C[C@H]1[C@@H](c2ccc(C(F)F)nc2OCCO)[C@H](C(=O)Nc2ccnc(C(N)=O)c2)O[C@@]1(C)C(F)(F)F [Compound 208, 4-((2R,3S,4S,5R)-3-(6-(difluoromethyl)-2-(2-hydroxyethoxy)pyridin-3-yl)-4,5-dimethyl-5-(trifluoromethyl)tetrahydrofuran-2-carboxamido) picolinamide] | 100 to 1000 |
| C[C@H]1[C@@H](c2ccc(F)c(F)c2OCCN2CC(OC(F)F)C2)[C@H](C(=O)Nc2ccnc(C(N)=O)c2)O[C@@]1(C)C(F)(F)F [Compound 119, 4-((2R,3S,4S,5R)-3-(2-(2-(3-(difluoromethoxy)azetidin-1-yl)ethoxy)-3,4-difluorophenyl)-4,5-dimethyl-5-(trifluoromethyl)tetrahydrofuran-2-carboxamido)picolinamide] | < 10 |
| C[C@H]1[C@@H](c2ccc(F)c(F)c2OCCO)[C@H](C(=O)Nc2ccnc(C(N)=O)c2)O[C@@]1(C)C(F)(F)F [Compound 5, 4-((2R,3S,4S,5R)-3-(3,4-difluoro-2-(2-hydroxyethoxy)phenyl)-4,5-dimethyl-5-(trifluoromethyl)tetrahydrofuran-2-carboxamido) picolinamide] | < 10 |
| COCc1c([C@@H]2[C@@H](C(=O)Nc3ccnc(C(N)=O)c3)O[C@](C)(C(F)(F)F)[C@@H]2C)ccc(F)c1F (single isomer, unassigned) [Compound 146] | ≥ 1000 |
| CC[C@H](CO)COc1c([C@H]2[C@H](C(=O)Nc3ccnc(C(N)=O)c3)O[C@@](C)(C(F)(F)F)[C@H]2C)ccc(F)c1F (single isomer, unassigned) [Compound 92, rel-4-((2R*,3S*,4S*,5R*)-3-(3,4-difluoro-2-(2-(hydroxymethyl)butoxy)phenyl)-4,5-dimethyl-5-(trifluoromethyl)tetrahydrofuran-2-carboxamido)picolinamide] | 10 to 100 |
| CNCCOc1c([C@H]2[C@H](C(=O)Nc3ccnc(C(N)=O)c3)O[C@@](C)(C(F)(F)F)[C@H]2C)ccc(F)c1F [Compound 114, 4-((2R,3S,4S,5R)-3-(3,4-difluoro-2-(2-(methylamino)ethoxy)phenyl)-4,5-dimethyl-5-(trifluoromethyl)tetrahydrofuran-2-carboxamido)picolinamide] | 10 to 100 |
| COc1c([C@H]2[C@H](C(=O)Nc3ccnc(C(N)=O)c3)O[C@@](C)(C(F)(F)F)[C@H]2C)cc(O)c(F)c1F [Compound 178, 4-((2R,3S,4S,5R)-3-(3,4-difluoro-5-hydroxy-2-methoxyphenyl)-4,5-dimethyl-5-(trifluoromethyl)tetrahydrofuran-2-carboxamido) picolinamide] | < 10 |
